Assay results: ChEMBL document CHEMBL1201862, “PubChem BioAssay data set” (2004)
Active and inactive are the calls of the source.

Legend:
[1] = target: T1, Calpain-2 catalytic subunit (Sus scrofa, UniProt P43367); assay: m-calpain protease blockers, concentration series – biochemical, fluorogenic peptide substrate, dose response (AID 1420); assay type: functional
T1 sequence (P43367 whole entry): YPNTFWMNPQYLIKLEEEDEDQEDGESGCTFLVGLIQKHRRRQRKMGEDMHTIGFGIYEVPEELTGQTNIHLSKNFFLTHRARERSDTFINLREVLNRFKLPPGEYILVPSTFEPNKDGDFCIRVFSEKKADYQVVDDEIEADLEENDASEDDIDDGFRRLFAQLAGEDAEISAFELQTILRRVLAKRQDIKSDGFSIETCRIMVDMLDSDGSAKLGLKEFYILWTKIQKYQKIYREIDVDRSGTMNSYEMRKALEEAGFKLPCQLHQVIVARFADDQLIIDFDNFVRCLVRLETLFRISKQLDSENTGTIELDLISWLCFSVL

[2] = viability inhibitors of stage V gametocytes – luminescence, dose response (AID 1117278); assay type: functional, cell-based;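 also: gametocytes exposed to compound for 24 hours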
[3] = viability loss in human Jurkat cells – cell-based, luminescence, cytotoxicity control for P. falciparum gametocyte viability project, dose response (AID 1117277); assay type: functional;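 also: potency reflects loss of cellular ATP meaning fewer viable cells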
[4] = loss of A549 viability via ATP – cell-based, plate reader, dry powder, set 7, cytotoxicity control, dose response (AID 743318); assay type: functional
[5] = target: Endoplasmic reticulum aminopeptidase 2 (Homo sapiens, UniProt Q6P179); assay: inhibition of ERAP2 Arg-AMC cleavage – biochemical, plate reader, dry powder, set 2, selectivity assay for selective ERAP1 modulator project, dose response (AID 1117289); assay type: functional
Endoplasmic reticulum aminopeptidase 2, sequence (Q6P179 whole entry): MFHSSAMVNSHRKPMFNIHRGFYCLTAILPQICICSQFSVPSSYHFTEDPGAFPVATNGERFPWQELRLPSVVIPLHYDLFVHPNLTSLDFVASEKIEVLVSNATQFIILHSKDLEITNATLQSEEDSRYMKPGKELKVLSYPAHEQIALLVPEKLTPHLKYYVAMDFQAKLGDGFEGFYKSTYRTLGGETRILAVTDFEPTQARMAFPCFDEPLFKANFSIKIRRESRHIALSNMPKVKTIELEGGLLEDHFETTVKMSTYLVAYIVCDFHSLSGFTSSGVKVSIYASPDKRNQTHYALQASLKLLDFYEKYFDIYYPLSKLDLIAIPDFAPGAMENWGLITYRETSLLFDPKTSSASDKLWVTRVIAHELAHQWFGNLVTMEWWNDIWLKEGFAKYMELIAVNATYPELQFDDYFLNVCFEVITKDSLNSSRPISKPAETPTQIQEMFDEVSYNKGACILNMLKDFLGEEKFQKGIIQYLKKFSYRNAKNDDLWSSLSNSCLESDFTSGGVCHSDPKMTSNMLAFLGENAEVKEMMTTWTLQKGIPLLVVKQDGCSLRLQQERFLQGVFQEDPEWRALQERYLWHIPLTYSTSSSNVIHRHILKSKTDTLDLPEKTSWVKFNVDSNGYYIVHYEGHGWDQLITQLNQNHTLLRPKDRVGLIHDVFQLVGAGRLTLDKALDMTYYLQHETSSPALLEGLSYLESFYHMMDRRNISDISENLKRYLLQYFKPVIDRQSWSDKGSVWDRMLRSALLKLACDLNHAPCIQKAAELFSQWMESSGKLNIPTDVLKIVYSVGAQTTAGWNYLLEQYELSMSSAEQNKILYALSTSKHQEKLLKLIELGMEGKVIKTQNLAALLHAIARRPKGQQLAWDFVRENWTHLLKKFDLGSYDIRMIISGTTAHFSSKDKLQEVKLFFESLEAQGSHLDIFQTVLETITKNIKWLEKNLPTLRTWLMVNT

[6] = target: Leucyl-cystinyl aminopeptidase (Mus musculus, UniProt Q8C129); assay: mouse IRAP aminopeptidase activity inhibition – biochemical, dry powder samples, set 3, selectivity assay for ERAP1 modulator project, dose response (AID 1117288); assay type: functional
Leucyl-cystinyl aminopeptidase, sequence (Q8C129 whole entry): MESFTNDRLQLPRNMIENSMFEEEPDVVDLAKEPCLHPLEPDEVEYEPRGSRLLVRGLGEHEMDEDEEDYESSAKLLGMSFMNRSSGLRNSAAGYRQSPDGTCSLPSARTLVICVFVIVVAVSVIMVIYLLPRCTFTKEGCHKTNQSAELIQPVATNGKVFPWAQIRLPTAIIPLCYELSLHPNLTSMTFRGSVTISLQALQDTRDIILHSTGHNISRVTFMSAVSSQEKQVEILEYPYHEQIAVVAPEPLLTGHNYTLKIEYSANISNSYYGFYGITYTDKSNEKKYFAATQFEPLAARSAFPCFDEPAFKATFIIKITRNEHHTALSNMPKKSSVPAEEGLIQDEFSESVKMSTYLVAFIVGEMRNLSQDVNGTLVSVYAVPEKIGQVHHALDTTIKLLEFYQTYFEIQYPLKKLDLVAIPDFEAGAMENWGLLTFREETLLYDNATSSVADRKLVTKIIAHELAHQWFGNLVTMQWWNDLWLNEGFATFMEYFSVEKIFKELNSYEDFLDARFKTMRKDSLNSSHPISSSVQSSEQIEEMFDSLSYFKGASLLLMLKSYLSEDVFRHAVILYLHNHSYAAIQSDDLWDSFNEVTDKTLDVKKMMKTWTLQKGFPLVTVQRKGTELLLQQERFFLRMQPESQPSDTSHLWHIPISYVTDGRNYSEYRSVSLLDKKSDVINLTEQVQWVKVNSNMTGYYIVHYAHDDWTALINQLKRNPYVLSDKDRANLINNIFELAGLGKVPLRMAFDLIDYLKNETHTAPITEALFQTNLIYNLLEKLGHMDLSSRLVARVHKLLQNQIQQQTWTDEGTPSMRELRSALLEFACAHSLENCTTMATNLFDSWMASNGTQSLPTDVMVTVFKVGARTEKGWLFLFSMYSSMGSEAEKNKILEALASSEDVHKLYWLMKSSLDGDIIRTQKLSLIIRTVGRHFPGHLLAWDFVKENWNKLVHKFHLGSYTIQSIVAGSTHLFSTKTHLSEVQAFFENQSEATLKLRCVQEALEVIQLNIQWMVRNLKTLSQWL

[7] = Trypanosoma cruzi growth suppression in host cells – NIH3T3 host cells, beta-gal luminescence, confirmation (AID 2044); assay type: functional, cell-based;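 also: intracellular parasites grown in NIH/3T3 mouse fibroblasts as host cells; luminescent beta-galactosidase reporter signal from transgenic T. cruzi replicating inside host cells; inhibitors lower the luminescence signal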
[8] = NIH3T3 cell viability loss – ATP luminescence, mouse fibroblasts, counter-screen, dose response (AID 2010); assay type: functional, cell-based; conditions: nih3t3;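 also: cells exposed to compound for about 90 hours before reading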
INS1 = assay: INS-1E survival protection against cytokine death – cell-based, luminescence, retest, dose response (AID 449756); assay type: functional; conditions: Rattus norvegicus;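 also: cell death triggered by IL-1 beta plus TNF-alpha plus IFN-gamma mixture; protective hits raise ATP signal compared with cytokine alone wells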
Vero = assay: cells; assay type: functional; conditions: Chlorocebus sabaeus
[9] = cAMP pathway inhibition in counterscreen cell line – TR-FRET cAMP detection, counter-screen for MC4R biased antagonist project, dose response (AID 602305); assay type: functional, cell-based;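 also: U2OS cells stimulated with forskolin near its EC80 as the cAMP inducer; potency is for inhibition of forskolin-stimulated cAMP signaling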
[10] = inhibitors acting on PAX2 in cells – cell-based, plate reader, dry powder samples, selectivity assay for PAX8 inhibitor project, dose response (AID 743048); assay type: functional;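 also: HEK293 cells carrying a WT1 promoter luciferase reporter driven by expressed Pax2; potency is for inhibition of Pax2 driven reporter signal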
[11] = COV362 cell viability loss – plate reader, dry powder, SA12, cytotoxicity control for PAX8 inhibitor project, dose response (AID 743144); assay type: functional, cell-based
[12] = A2780 cell killing – plate reader, dry powder samples, cytotoxicity control, dose response (AID 743046); assay type: functional, cell-based
[13] = OVCAR-3 cell viability loss – plate reader, dry powder samples, PAX8 inhibitor project, dose response (AID 743044); assay type: functional, cell-based
[14] = PAX5 cellular inhibition readout – cell-based, plate reader, dry powder samples, selectivity assay for PAX8 inhibitor project, dose response (AID 743047); assay type: functional;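 also: HEK293 cells carrying a Pax5 driven CD19 promoter luciferase reporter; potency of inhibitors that lower reporter luminescence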
[15] = IGROV1 cell killing – plate reader, dry powder samples, PAX8 inhibitor project, dose response (AID 743043); assay type: functional, cell-based; conditions: IGROV-1
[16] = OVCAR4 cell viability loss – plate reader, dry powder, SA11, cytotoxicity control for PAX8 inhibitor project, dose response (AID 743150); assay type: functional, cell-based; conditions: OVCAR-4
[17] = COV434 cell viability loss – plate reader, dry powder, SA7, cytotoxicity control for PAX8 inhibitor project, dose response (AID 743145); assay type: functional, cell-based
[18] = OV-90 cell viability loss – plate reader, dry powder, SA8, PAX8 inhibitor project, dose response (AID 743149); assay type: functional, cell-based
[19] = PAX8-dependent cell viability loss – plate reader, dry powder, dose response (AID 743049); assay type: functional, cell-based
[20] = rise of 2N DNA cells, HeLa – IC50, dose response (AID 1117349); assay type: functional, cell-based
[21] = CellTiter-Glo luminescence survival assay, SW480 colon tumor line, concentration-response curve, half-maximal inhibitory concentration (AID 1117338); assay type: functional
[22] = IC50 of insulin release inhibition, rat insulinoma INS-1E line, 5 mM glucose, cell-based (AID 1117331); assay type: functional
[23] = RKO cell viability reduction, dose response, CellTiter-Glo luminescence (AID 1117322); assay type: functional
[24] = cytotoxicity toward HCT116 cells – cell-based, CellTiter-Glo luminescence, IC50, dose response (AID 1117332); assay type: functional; conditions: HCT-116
[25] = SNU-C1 cell viability reduction, dose response, CellTiter-Glo luminescence (AID 1117323); assay type: functional, cell-based
[26] = glucagon-like peptide-1 release potency in STC-1, concentration-response, half-maximal inhibitory concentration in the STC-1 line (AID 1117345); assay type: functional, cell-based
[27] = cytotoxicity toward Colo320 cells – cell-based, CellTiter-Glo luminescence, IC50, dose response (AID 1117334); assay type: functional; conditions: COLO 320
[28] = rise of 4N DNA cells, HeLa – IC50, dose response (AID 1117351); assay type: functional, cell-based
[29] = cytotoxicity toward HT-29 cells – cell-based, CellTiter-Glo luminescence, IC50, dose response (AID 1117330); assay type: functional
[30] = Reduced DLD-1 viability, concentration-response, CellTiter-Glo luminescence (AID 1117352); assay type: functional
[31] = Potency on glucagon-like peptide 1 release, dose-response in NCI-H716 cell line, half maximal inhibitory concentration (AID 1117344); assay type: functional, cell-based

SMILES: CCc1ccc2nc(NC(=O)Cn3cnc4ccccc4c3=O)sc2c1
- IC50 [1]: 11.7 µM (not active)
- IC50 [2]: > 109 µM (inactive)
- IC50 [3]: > 83.3 µM (inactive)

SMILES: Cc1ccc(C(C)C)c(OCCn2c(=S)[nH]c3cc(F)ccc32)c1
- AC50 [4]: 26.9 µM (active)

SMILES: COc1ccc(C(=O)O)cc1S(=O)(=O)Nc1ccc(C(F)(F)F)cc1N1CCCCC1
- AC50 [5]: 12.5 µM (active)
- AC50 [6]: 77 µM (active)

SMILES: N=C(NCCCCCCNC(=N)NC(=N)Nc1ccc(Cl)cc1)NC(=N)Nc1ccc(Cl)cc1 [CHLORHEXIDINE]
- EC50 [7]: 0.178 µM (active)
- EC50 [8]: 6.74 µM (active)
- AC50 (INS1): 4.67 µM (active)
- CC50 (Vero): 8.43 µM (active)
- IC50 [9]: 31.8 µM (inactive)
- AC50 [10]: 13.6 µM (active)
- AC50 [11]: 21.6 µM (active)
- AC50 [12]: 13.9 µM (active)
- AC50 [13]: 13.8 µM (active)
- AC50 [14]: 16.4 µM (active)
- AC50 [15]: 15.6 µM (active)
- AC50 [16]: 33.9 µM (active)
- AC50 [17]: 12.2 µM (active)
- AC50 [18]: 20 µM (active)
- AC50 [19]: 12.5 µM (active)
- IC50 [20]: > 10 µM (inactive)
- IC50 [21]: 5.67 µM (inactive)
- IC50 [22]: 25.2 µM (inactive)
- IC50 [23]: 4.58 µM (active)
- IC50 [24]: 4.39 µM (active)
- IC50 [25]: 0.439 µM (active)
- IC50 [26]: 10.3 µM (inactive)
- IC50 [27]: 5.16 µM (inactive)
- IC50 [28]: > 10 µM (inactive)
- IC50 [29]: 3.79 µM (active)
- IC50 [30]: 2.8 µM (active)
- IC50 [31]: 26.2 µM (inactive)
